From patent US20220220100A1 (SOLUTIA CANADA INC., priority 2019, published 2022)

How the values were obtained:
Type in all cases: physicochemical
[1] = UV/Vis absorbance at 400 nm and Yellowness Index of the ring-open isomer; details: for Abs @ 400 nm, RO (Absorption of ring-open isomer at 400 nm): 2×10^−5 M solution, 1 cm pathlength cuvette
Description: In addition to the above, chromophores should have acceptable colour for both the ring-opened and ring-closed isomers. For example, the ring-open isomer of the chromophore should have a Yellowness Index (YI) of less than about 10 and an absorbance at 400 nm, as measured for a 2×10^−5 M solution in a 1 cm pathlength cuvette. For the ring-closed isomer of the chromophore, the lambda max should be between about 475 nm and 700 nm, tunable according to desired colour and number of chromophores in the composition.
(§1) UV/Vis spectra were obtained using an OceanOptics™ Spectrophotometer. A 2×10^−5 M solution of compound in solvent was prepared, and photofaded using visible light until absorption in the visible region of the spectrum stabilized. The sample was then irradiated with simulated sunlight (QSUN SS-150 Solar Simulator with xenon arc lamp) until the absorption spectrum stabilized. To obtain PSS in the presence of a UV blocking film, a second sample was prepared and irradiated as described, with a UV blocking film inserted in the light path when irradiating.

[2] = Photostationary state (PSS) and lambda max under simulated sunlight (solar simulator); details: for PSS (SS): absorbance at photostationary state, simulated sunlight (solar simulator), 2×10^−5 M solution; for λmax (nm): peak in the visible range, ring-closed (dark) state
Description: The term “photostationary state” (PSS) refers to an equilibrium state of a compound or material where the rate of the ring closing (forward) reaction is equal to the rate of the ring-opening reaction, when irradiated with light in a given region of the spectrum. In other words, the ratio of the ring-open isomer to the ring-closed isomer is at an equilibrium. PSS may be expressed with reference to a light source, or with reference to a type of light, for example, QUV, Xenon-arc lamp, Q-SUN, natural or filtered sunlight, UV, VIS, IR, NIR, full spectrum or the like, or with reference to a particular wavelength or range of wavelengths, or in the presence or absence of a filter. Some ring-open and ring-closed isomers may undergo isomerization from one to the other in response to different wavelengths of light. If a wavelength of light is used where only one of the isomers absorbs, irradiation results in complete isomerization to the other form. 254 nm, 313 nm or 365 nm light are commonly used in studies of UV-absorbing isomers, but this may not be representative of the PSS under other light conditions that include the visible spectrum such as natural or simulated sunlight (“full spectrum” light) and/or with filters that block a portion of the UV component of the light. For example, in a ring-closed (dark) state, the magnitude of the maximum absorbance in the visible range may change with the light source (FIG. 1). The wavelength at this peak in the visible range may be referred to as lambda max, or λmax. […] When full spectrum light from a solar simulator (Xenon arc lamp) is used as a light source (line B), a balance is achieved between the ring-closed (dark) state induced by the UV component, and a ring-open (faded) state induced by the visible component of the light. Inclusion of a UV blocking layer in the light path (line A) may reduce the UV component of the light, and the ring-opening reaction induced by the visible light component becomes more prominent. […] Where desired, the ratio of ring-open and ring-closed isomers at a PSS may be quantified by ^1H NMR spectroscopy, such as described in U.S. Pat. No. 7,777,055. In various embodiments, compounds with an increased absorbance at a photostationary state (PSS), or increased contrast ratio, are an improvement over other diarylethene compounds. A compound with a greater absorbance in the visible range can be used in lesser quantities in a formulation or material to achieve a desired contrast ratio, whereas a compound with a lower absorbance at a PSS may need a higher concentration to achieve a desired contrast ratio.
Photostationary State (PSS)
as §1

[3] = Oxidation potential of ring-closed and ring-open isomers; details: no unit printed in table (V relative to Ag/AgCl)
Description: In various embodiments, at a PSS, some of the chromophore will be in the ring-closed isomer, with a small, but non-zero portion of ring-open isomer. The oxidation potential of a ring-open isomer may be more anodic than the oxidation potential of a ring-closed isomer. Exposure to a potential that is too far beyond what is necessary to oxidize the ring-closed isomer may result in oxidation of the ring-open isomer, which may be irreversible and result in electrochemically-induced degradation of the chromophore.
Thus, in various embodiments, an anodic chromophore may have an oxidation potential of from about 0.4 V to 1.2 V for the ring-closed isomer and about 1.0 V to 2.5 V for the ring-open isomer relative to an Ag/AgCl reference electrode. In various embodiments, the oxidation potential for the ring-open isomer is about 250 mV more anodic than the oxidation potential for the ring-closed isomer. For example, the oxidation potential may be about 260 mV, about 280 mV, about 300 mV, about 320 mV, about 340 mV, about 360 mV, about 380 mV, about 400 mV, about 420 mV, about 440 mV, or about 460 mV more anodic than the oxidation potential for the ring-closed isomer.

[4] = Photostability: xenon arc weathering of chromophore solutions, LCMS analysis; details: for Ketone (%) / Minus-2HF (%) / Minus-HF (%) / Sulfone (%) / Chromophore Remaining (%): xenon arc, 82° C. bp; for Ketone (%) / Minus-2HF (%) / Minus-HF (%) / Sulfone (%): linearly interpolated to 0.5 MJ/m2 @ 340 nm; for Chromophore Remaining (%): linearly interpolated to 0.5 MJ/m2 @ 340 nm of exposure energy; for Photostability (in words): weathering experiments
Description: Photostability (resistance to light-induced degradation) may be measured by the amount of time required for the compound, or a material comprising the compound, to degrade to a certain point under light exposure. The light exposure may be constant, or cyclic. The light transmittance or absorbance of the compound, or material comprising the compound, may be determined at both a light state and dark state prior to testing, to determine a contrast ratio. During testing, the contrast ratio may be monitored (periodically or continually), the compound or material may be determined to have failed when the contrast ratio falls outside, or below, a selected range, or when the contrast ratio decreases to a percentage of the original contrast ratio. Photostability may also be expressed with reference to a light source or with reference to a type of light.
Chromophore solutions in Rhodiasolv IRIS were prepared at 1 to 10 wt % loading. Solutions were prepared in a glovebox by charging the chromophore and Rhodiasolv IRIS to a trace-clean vial, and the solution was stirred on a hotplate at 90° C. for 2-24 hours. After cooling, the chromophore solution was injected into glass weathering cells and the fill and vent ports were sealed with a thin disc of Kalrez (FFKM Perfluorinated Elastomer) and secured with a clamp and set-screw. The weathering cells were filled and sealed inside the glove box.
Measurement of Photostability
A. Fabrication of cuvettes. Two holes of 0.8 mm diameter were drilled at opposite ends in a 75×50 mm piece of float glass using a diamond drill bit in a rotary tool. The drilled glass and a matching piece of undrilled glass were then cleaned using hot soapy water, rinsed with deionized water and acetone and then dried with compressed air. A 5 mm wide frame was cut from a sheet of 50 μm thickness EVAL EF-F using a laser engraver. The EVAL frame was placed around the perimeter of one sheet of glass and sandwiched by the second sheet of glass. The glass-EVAL-glass sandwich was secured with tape and heated under vacuum (10 mmHg) for 30 minutes at 170° C. in a vacuum bag. After cooling, a third piece of float glass was PVB laminated to the non-drilled side of the sealed glass cells using Trosifol UV Extra Protect B150 PVB (400 nm UV cut-off).
B. Xenon arc weathering protocol. Devices were exposed to simulated weathering conditions inside a Xe-3-HS xenon arc chamber, manufactured by Q-labs Inc. The samples were weathered according to the following table. The devices were exposed to these conditions continuously, with no dark or spray cycles included.
C. Analysis of weathered chromophore solutions by LCMS. The set-screws, metal clamps and Kalrez plugs were removed from the cuvette to expose the fill port. A 5 mL plastic syringe (NORM-JECT®) equipped with a tip (Precision Tips, 0.010″ RED) was inserted into one fill port and the chromophore solution was withdrawn from the cuvette. The chromophore solution was then injected into a 2 mL amber vial (part number 5182-0716, Agilent Technology) prefilled with 1.5 mL LC-MS grade acetonitrile (HiPerSolbe CHROMANORM Acetonitrile, VWR BDH Chemicals). An aliquot of the acetonitrile solution (2 μL) was injected into the LC-MS system (Agilent Infinity 1290 LC-MS system with diode array detector) through an autosampler mechanism. Species in the injected sample were separated through a reverse phase column (Zorbax SB-C18, 2.1×50 mm, 1.8 μm, operated at 40° C.), using a mixture of acetonitrile (mixed with 1% formic acid v/v ratio), methanol (HiPerSolbe CHROMANORM Methanol, VWR BDH Chemicals) and water (HiPerSolbe CHROMANORM Water, VWR BDH Chemicals) as mobile phase.

[5] = 1 wt %, interpolated to 0.5 MJ/m^2 of energy exposure at 340 nm

| Compound | YI (Yellowness Index) [1] | Abs @ 400 nm, RO (Absorption of ring-open isomer at 400 nm) [1] | PSS (SS) [2] | λmax (nm) [2] [nm] | RC [O] (oxidation potential of ring-closed isomer) ([3]; ring-closed isomer) | RO [O] (oxidation potential of ring-open isomer) ([3]; ring-open isomer) | Ketone (%) ([4]; 3 wt % in Rhodiasolv IRIS) | Minus-2HF (%) ([4]; 3 wt % in Rhodiasolv IRIS) | Minus-HF (%) ([4]; 3 wt % in Rhodiasolv IRIS) | Sulfone (%) ([4]; 3 wt % in Rhodiasolv IRIS) | Chromophore Remaining (%) ([4]; 3 wt % in Rhodiasolv IRIS) | Ratio of chromophore remaining relative to S340 ([4]; 3 wt %, interpolated to 0.5 MJ/m^2 of energy exposure at 340 nm) | Photostability (in words) [4] | Ketone (%) ([4]; 1 wt % in Rhodiasolv IRIS) | Minus-2HF (%) ([4]; 1 wt % in Rhodiasolv IRIS) | Minus-HF (%) ([4]; 1 wt % in Rhodiasolv IRIS) | Sulfone (%) ([4]; 1 wt % in Rhodiasolv IRIS) | Chromophore Remaining (%) ([4]; 1 wt % in Rhodiasolv IRIS) | Ratio of chromophore remaining relative to S340 [4, 5] | Sum of degradation product percentages relative to the sum of degradation product percentages for S340 [4, 5] |
| --- | --- | --- | --- | --- | --- | --- | --- | --- | --- | --- | --- | --- | --- | --- | --- | --- | --- | --- | --- | --- |
| COc1cc2oc(-c3ccc(C(C)(C)C)cc3)c(C3=C(c4cc(-c5cccs5)sc4-c4cccs4)C(F)(F)C(F)(F)C3(F)F)c2cc1OC [Chromophore S193, 3-(2-([2,2′:5′,2″-terthiophen]-3′-yl)-3,3,4,4,5,5-hexafluorocyclopent-1-en-1-yl)-2-(4-(tert-butyl)phenyl)-5,6-dimethoxybenzofuran] | 3.59 | 0.097 | 0.269 | 587 | 1.02 | 1.41 | 0.0 | 2.1 | 1.4 | 0.0 | 92.7 | 1.02 | high photostability |  |  |  |  |  |  |  |
| COc1cc2oc(-c3ccc(C(C)(C)C)cc3)c(C3=C(c4cc(-c5cc6c(s5)C(C)(C)CC6(C)C)sc4-c4cc5c(s4)C(C)(C)CC5(C)C)C(F)(F)C(F)(F)C3(F)F)c2cc1OC [Chromophore S404] | 11.1 | 0.182 | 0.429 | 599 |  |  |  |  |  |  |  |  | high photostability | 0.0 | 0.0 | 0.0 | 0.0 | 100.0 | 1.10 | 0.00 |
